Measurements published in patent publication US20110053995A1, “BENZENESULFONANILIDE COMPOUND INHIBITORS OF UREA TRANSPORTERS” (THE REGENTS OF THE UNIVERSITY OF CALIFORNIA, priority 2006, published 2011).

How the values were obtained:
mouse UT-B = target: T1, mouse UT-B (Mus musculus, UniProt Q8VHL0); assay: Stopped-flow light scattering, N-methylurea transport in mouse RBCs; format: cell-based
T1 construct: the indicator cells are red blood cells that endogenously express the UT-B urea transporter; endogenous in cells; host or cells: red blood cells of wild-type CD1 mice
T1 sequence (Q8VHL0 1-384): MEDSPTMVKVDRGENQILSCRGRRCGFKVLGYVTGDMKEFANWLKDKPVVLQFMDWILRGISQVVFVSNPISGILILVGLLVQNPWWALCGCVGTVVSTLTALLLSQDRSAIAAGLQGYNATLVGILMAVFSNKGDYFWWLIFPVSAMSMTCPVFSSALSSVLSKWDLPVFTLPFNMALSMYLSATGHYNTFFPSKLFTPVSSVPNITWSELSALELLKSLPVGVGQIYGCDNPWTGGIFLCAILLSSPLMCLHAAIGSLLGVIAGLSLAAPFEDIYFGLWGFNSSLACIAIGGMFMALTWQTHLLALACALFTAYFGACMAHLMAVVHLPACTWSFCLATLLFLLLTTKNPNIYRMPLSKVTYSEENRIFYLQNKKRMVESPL
Procedure: As a positive control, 0.7 mM phloretin was added to the RBC suspension prior to stopped-flow experiments. Measurements of water permeability were carried out similarly, with sucrose (cell-impermeant) used instead of urea to establish a 250-mM osmotic gradient. As a positive control, HgCl2 (0.3 mM) was added to the RBC suspension prior to stopped-flow measurements. Osmotic water permeability coefficients (Pf) were computed from light scattering data as described (van Hoek et al., J Biol Chem. 267:18267-69 (1992)).
For stopped-flow experiments, a 100-mM gradient of urea (for human RBCs) or N-methylurea (for mouse RBCs) was used to minimize competition effects (apparent urea and N-methylurea affinities at 23° C. are approximately 200 and approximately 100 mM, respectively) (Mayrand et al., J Gen Physiol. 81:221-37 (1983)). N-methylurea, with greater than 2-fold slower RBC permeability than urea, was used in mouse studies to better resolve overlapping water and urea transport kinetics. Dose-response data were also collected for human RBCs using a high concentration of 1 M urea to distinguish between competitive vs. non-competitive inhibitor binding.
For these studies using mouse RBCs, methylurea was used as the transported solute instead of urea because its transport is slower, allowing better estimation of EC50 values.

RBCs from wild-type mice = assay: Osmotic water permeability, RBCs from wild-type mice; format: cell-based, mouse; conditions: inhibitors 25 μM, phloretin 0.7 mM, 10° C.
Procedure: FIGS. 8A-B illustrate UT-B-facilitated water transport by ‘chemical UT-B knock-out’. Osmotic water permeability was measured from the time course of RBC volume in response to a 250-mM inwardly directed sucrose gradient. FIG. 8A presents representative traces of mouse RBC water permeability performed at 10° C., with genotypes and conditions indicated. Inhibitors ureainh-201 and ureainh-302 were used at 25 μM. FIG. 8B presents osmotic water permeability coefficients (Pf) from experiments as illustrated in FIG. 8A (±SE, 3-7 curves per group of RBCs pooled from 4 mice per genotype). *, P<0.01 compared with no inhibitor; #, P<0.01 compared with wild-type (no inhibitor).
RBC urea and water permeabilities were assayed by stopped-flow light scattering using a Hi-Tech Sf-51 instrument (Wiltshire, UK). For measurement of urea permeability, dilutions of whole blood (human or mouse; see Example 1) in PBS (hematocrit: approximately 0.5%) were incubated with test compounds for 5 min and then subjected to a 250-mM inwardly directed gradient of urea. After an initial osmotic shrinking phase, the kinetics of increasing cell volume caused by urea influx were measured as the time-course of 90° scattered light intensity at 530 nm, with increasing cell volume resulting in reduced scattered light intensity. As a positive control, 0.7 mM phloretin was added to the RBC suspension prior to stopped-flow experiments. Measurements of water permeability were carried out similarly, with sucrose (cell-impermeant) used instead of urea to establish a 250-mM osmotic gradient. As a positive control, HgCl2 (0.3 mM) was added to the RBC suspension prior to stopped-flow measurements. Osmotic water permeability coefficients (Pf) were computed from light scattering data as described (van Hoek et al., J Biol Chem. 267:18267-69 (1992)).
This example describes chemical knock-out of UT-B by UT-B inhibitors in RBCs and the effect on UT-B-facilitated Water transport. […] Osmotic water permeability was measured by stopped-flow light scattering in RBCs from wild-type and AQP1-null mice as shown in FIG. 8A. […] AQP1-null RBCs had greater than 5-fold reduced Pf compared to wild-type RBCs.

UT-B = target: T2, UT-B (Homo sapiens, UniProt Q13336); assay: RBC lysis assay, human RBCs; format: cell-based; conditions: lysis assay, FIG. 5B, read-out: apparent EC50
T2 construct: a red blood cell (i.e., erythrocyte), which endogenously expresses the urea transporter UT-B; endogenous in cells; host or cells: human red blood cells (whole venous blood, single donor)
T2 sequence (Q13336 1-389): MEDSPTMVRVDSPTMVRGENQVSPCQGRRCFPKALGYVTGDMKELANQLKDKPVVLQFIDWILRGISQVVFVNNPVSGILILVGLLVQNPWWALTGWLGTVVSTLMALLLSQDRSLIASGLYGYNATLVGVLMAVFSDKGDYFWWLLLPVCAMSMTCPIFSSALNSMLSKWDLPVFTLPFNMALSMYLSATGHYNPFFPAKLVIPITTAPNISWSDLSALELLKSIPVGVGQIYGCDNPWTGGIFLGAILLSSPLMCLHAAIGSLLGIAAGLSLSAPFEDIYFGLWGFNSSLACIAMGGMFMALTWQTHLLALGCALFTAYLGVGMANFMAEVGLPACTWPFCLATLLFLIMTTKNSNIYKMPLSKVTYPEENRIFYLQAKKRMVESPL
Excerpt: Vigorous mixing was achieved by repeated pipetting.

inhibitory potency against mouse UT-B (mouse UT-B)	EC50 (UT-B)	SMILES	effect on water transport (RBCs from wild-type mice)
good inhibitory potencies	100 nM	Cc1ccc(Nc2nnc(-c3ccc(C(N)=O)cc3)c3ccccc23)cc1 [ureainh-302]	little effect on water transport
good inhibitory potencies	30 nM	NC(=O)CSc1oc(-c2ccccc2)nc1S(=O)(=O)c1ccc(Br)cc1 [ureainh-101]	little effect on water transport
